# Molecular target: Recombinant human GR (Homo sapiens (Human), UniProt P04150)
# Assay: GR binding activity evaluation test (GR competitive binding assay, fluorescence polarization)
# Conditions: 20 μM test compound solution, 10 μL/well; 2 mM DEX as positive control; 2 hours at room temperature
# Protocol: In order to evaluate a binding activity of the present compound to GR, a GR receptor competitor assay was carried out by a fluorescence polarization method. In the assay, a GR competitive binding assay kit (manufactured by Invitrogen, cat No. P2816) was used for the assay, and a procedure was carried out according to the protocol attached to the kit. Hereinafter, the specific method will be described.
# GR screening buffer: A buffer containing 10 mM of potassium phosphate (pH 7.4), 20 mM of sodium molybdate (Na2MoO4), 0.1 mM of ethylene diamine tetraacetic acid (EDTA), 5 mM of dithiothreitol (DTT), 0.1 mM of stabilizing peptide and 2% of dimethylsulfoxide was prepared.
# 4×GS1 solution: Fluormone™ GS1, which is a fluorescent glucocorticoid ligand, was diluted with GR screening buffer, whereby a 4 nM solution was prepared. […]
# 5) The plate was incubated in a dark place at room temperature for 2 hours, and fluorescence polarization of each well was measured.
# A GR binding ratio (%) was calculated from the following equation. GR binding ratio (%)=100×{1−(fluorescence polarization of test compound solution−average value of fluorescence polarization of positive control solution)/(average value of fluorescence polarization of negative control solution−average value of fluorescence polarization of positive control solution)} (Test Results and Discussion)
# Recombinant human GR, sequence (P04150 whole entry): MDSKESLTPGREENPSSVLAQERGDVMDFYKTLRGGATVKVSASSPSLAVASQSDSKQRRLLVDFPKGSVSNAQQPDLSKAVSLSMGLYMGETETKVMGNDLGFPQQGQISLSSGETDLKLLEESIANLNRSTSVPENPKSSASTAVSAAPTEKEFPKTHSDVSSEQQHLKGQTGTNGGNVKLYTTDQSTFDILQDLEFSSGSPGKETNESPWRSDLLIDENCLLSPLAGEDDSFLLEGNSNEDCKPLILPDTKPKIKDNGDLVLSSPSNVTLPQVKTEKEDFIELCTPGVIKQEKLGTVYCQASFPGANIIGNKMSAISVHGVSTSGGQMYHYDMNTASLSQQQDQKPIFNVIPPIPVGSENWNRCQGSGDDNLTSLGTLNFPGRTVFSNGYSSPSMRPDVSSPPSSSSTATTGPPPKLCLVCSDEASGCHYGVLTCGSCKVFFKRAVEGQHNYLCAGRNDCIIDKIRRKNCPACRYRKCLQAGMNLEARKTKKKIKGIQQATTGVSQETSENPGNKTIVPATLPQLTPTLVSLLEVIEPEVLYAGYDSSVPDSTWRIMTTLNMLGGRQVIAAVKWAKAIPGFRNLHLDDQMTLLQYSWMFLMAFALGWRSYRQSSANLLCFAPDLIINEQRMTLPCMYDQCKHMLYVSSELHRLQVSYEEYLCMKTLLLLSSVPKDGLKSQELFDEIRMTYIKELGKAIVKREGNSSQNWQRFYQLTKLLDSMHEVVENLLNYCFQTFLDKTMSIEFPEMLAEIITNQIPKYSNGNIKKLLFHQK
row,SMILES,GR binding rate (%)
1,"COc1cc(OCC(O)CO)ccc1-c1ccc2c(c1COc1cc(F)ccc1C)N(C)C(=O)C(C)(C)N2 (stereo not drawn) [Compound 4-1, 7-[4-(2,3-dihydroxypropyl)oxy-2-methoxyphenyl]-8-(5-fluoro-2-methylphenoxymethyl)-1,3,3-trimethyl-3,4-dihydro-1H-quinoxalin-2-one]",>99

# System: IL-6 production in human corneal epithelium cell line (HCE-T)
# Assay: IL-6 production inhibitory action evaluation test after LPS stimulation
# Format: cell-based
# Conditions: 4 hours, 100 μM test compound solution 10 μL/well, DEX treated group = 100
# Protocol: To evaluate the action of the present compounds as a GR agonist, IL-6 production inhibitory action in human corneal epithelial cell line after LPS stimulation was examined The IL-6 production was measured by using the HTRF method (Cat No. 62IL6PEB manufactured by Cisbio Bioassays, Inc.) according to the attached protocol. The specific method is described below.
# LPS solution: After dissolving LPS in PBS(−), the resulting solution was diluted with a culture solution, whereby an LPS solution with a 1 μg/mL concentration was prepared.
# After dissolving the test compound in dimethylsulfoxide, the solution was diluted with a 10% FBS-DMEM/Ham's F12 medium, whereby a 100 μM of the test compound solution was prepared. […] In addition, DEX was similarly dissolved, whereby a 100 μM concentration of the DEX solution was prepared, and an IL-6 production inhibitory ratio of DEX was measured, and used for calculation of Efficacy (% DEX).
# Used cells: human corneal epithelium cell line (HCE-T) (RIKEN, Institute of Physical and Chemical Research)
# The cells continued to subculture according to this method were used for the test.
# (Calculation of IL-6 Production Inhibitory Ratio)
# The IL-6 production inhibitory ratio (%) was calculated by the following formula. IL-6 production inhibitory ratio (%)=100×{1−(IL-6 produced amount of each test compound solution−average value of IL-6 produced amount of negative control group)/(average value of IL-6 produced amount of positive control group−average value of IL-6 produced amount of negative control group)}(%)
# Further, the IL-6 production inhibitory ratio (Efficacy (% DEX)) when the DEX treated group was made 100 was calculated. Efficacy (% DEX)=100×{(average value of IL-6 production inhibitory ratio of each test compound solution)/(average value of IL-6 production inhibitory ratio of DEX treated group)}(%)
# In addition, IC50 was calculated according to a conventional method. IDBS XLfit4 was used for the calculation.
row,SMILES,IL-6 production inhibitory ratio (% DEX)
1,"CC[C@@H](O)COc1ccc(-c2ccc3c(c2COc2cc(F)ccc2C)N(C)C(=O)C(C)(C)N3)c(OC)c1 [Compound 1-4, (R)-8-(5-fluoro-2-methylphenoxymethyl)-7-[4-(2-hydroxybutyl)oxy-2-methoxyphenyl]-1,3,3-trimethyl-3,4-dihydro-1H-quinoxalin-2-one]",92
2,"COc1cc(OC[C@H](O)CC#N)ccc1-c1ccc2c(c1COc1cc(F)ccc1C)N(C)C(=O)C(C)(C)N2 [Compound 5-1, (R)-7-[4-(3-cyano-2-hydroxypropyl)oxy-2-methoxyphenyl]-8-(5-fluoro-2-methyl-phenoxymethyl)-1,3,3-trimethyl-3,4-dihydro-1H-quinoxalin-2-one]",98
3,"COc1cc(OC[C@@H](O)CC#N)ccc1-c1ccc2c(c1COc1cc(F)ccc1C)N(C)C(=O)C(C)(C)N2 [Compound 5-2, (S)-7-[4-(3-cyano-2-hydroxypropyl)oxy-2-methoxyphenyl]-8-(5-fluoro-2-methyl-phenoxymethyl)-1,3,3-trimethyl-3,4-dihydro-1H-quinoxalin-2-one]",>99
4,"COc1cc(OCC(O)CC(=O)OC(C)(C)C)ccc1-c1ccc2c(c1COc1cc(F)ccc1C)N(C)C(=O)C(C)(C)N2 (stereo not drawn) [Compound 7-2, 7-[4-(3-t-butoxycarbonyl-2-hydroxypropyl)oxy-2-methoxyphenyl]-8-(5-fluoro-2-methylphenoxymethyl)-1,3,3-trimethyl-3,4-dihydro-1H-quinoxalin-2-one]",>99
5,"COc1ccc(O)cc1-c1ccc2c(c1COc1cc(F)ccc1C)N(C)C(=O)C(C)(C)N2 [Control compound C, 8-(5-fluoro-2-methylphenoxymethyl)-7-(5-hydroxy-2-methoxyphenyl)-1,3,3-trimethyl-3,4-dihydro-1H-quinoxalin-2-one, reference compound]",71

# From patent US10435379B2, “[4-(1,3,3-trimethyl-2-OXO-3,4-dihydro-1H-quinoxalin-7-yl)phenoxy]ethyloxy compound or salt thereof” (SANTEN PHARMACEUTICAL CO., LTD., priority 2015, dated 2019)
